This passage reports EC50 results from BindingDB's records for doi:10.1021/jm000290u (Purdue University, 2001).

This experiment has as its target Human immunodeficiency virus 2. The experiment is described as follows: In vitro inhibition of cytopathic effect was determined against HIV-2 ROD in MT-4 cells using MTT cytoprotection assay.
As to `CC(C)CCCC(C)[C@H]1CCC2C3CCC4C[C@@H](CCC=C(c5cc(Cl)c(O)c(C(=O)N[C@@H](CCC(=O)O)C(=O)O)c5)c5cc(Cl)c(O)c(C(=O)N[C@@H](CCC(=O)O)C(=O)O)c5)CC[C@]4(C)C3CC[C@@]21C` (stereo not given in full) [2-(3-Chloro-5-{1-[3-chloro-5-(1,3-dicarboxy-propylcarbamoyl)-4-hydroxy-phenyl]-4-[17-(1,5-dimethyl-hexyl)-10,13-dimethyl-hexadecahydro-cyclopenta[a]phenanthren-3-yl]-but-1-enyl}-2-hydroxy-benzoylamino)-pentanedioic acid], it took 69.6 µM to reach a half-maximal effect (EC50).

For `CC(C)CCCC(C)[C@H]1CCC2C3CCC4C[C@@H](CCCC(c5cc(Cl)c(O)c(C(=O)N[C@@H](CCC(=O)O)C(=O)O)c5)c5cc(Cl)c(O)c(C(=O)N[C@@H](CCC(=O)O)C(=O)O)c5)CC[C@]4(C)C3CC[C@@]21C` (stereo not given in full) [2-(3-Chloro-5-{1-[3-chloro-5-(1,3-dicarboxy-propylcarbamoyl)-4-hydroxy-phenyl]-4-[17-(1,5-dimethyl-hexyl)-10,13-dimethyl-hexadecahydro-cyclopenta[a]phenanthren-3-yl]-butyl}-2-hydroxy-benzoylamino)-pentanedioic acid], a half-maximal response (EC50) required 73 µM.

Consider `CC(C)CCCC(C)[C@H]1CCC2C3CCC4C[C@@H](CCC=C(c5cc(Cl)c(O)c(C(=O)N[C@@H](Cc6ccccc6)C(=O)O)c5)c5cc(Cl)c(O)c(C(=O)N[C@@H](Cc6ccccc6)C(=O)O)c5)CC[C@]4(C)C3CC[C@@]21C` (stereo partly drawn) [2-(5-{1-{3-[1-carboxy-2-phenyl-(1S)-ethylcarbamoyl]-5-chloro-4-hydroxyphenyl}-4-[1-(1,5-dimethylhexyl)-9a,11a-dimethylperhydrocyclopenta[a]phenanthren-7-yl]-1-butenyl}-3-chloro-2-hydroxyphenylcarboxamido)-3-phenyl-(2S)-propanoic acid], for which the EC50 (usually the concentration at which the effect is half-maximal) is more than 62 µM.

In turn, `CC(C)CCCC(C)[C@H]1CCC2C3CCC4C[C@@H](CCC=C(c5cc(Cl)c(OCc6ccc(-c7cccc(C(=O)O)c7)cc6)c(C(=O)O)c5)c5cc(Cl)c(OCc6ccc(-c7cccc(C(=O)O)c7)cc6)c(C(=O)O)c5)CC[C@]4(C)C3CC[C@@]21C` (stereo partly drawn) [3'',3'''-Dichloro-5'',5'''-dicarboxy-4'',4'''-di[p-(3-carboxy-phenyl)benzyloxy]-4',4'-diphenyl-3beta-(3'-buten-1-yl)cholestane] gave a concentration for a half-maximal effect (EC50) of more than 95 µM.

In the case of `CC(C)CCCC(C)[C@H]1CCC2C3CCC4C[C@@H](CCC=C(c5cc(Cl)c(OCc6ccc(-c7ccc(C(=O)O)cc7)cc6)c(C(=O)O)c5)c5cc(Cl)c(OCc6ccc(-c7ccc(C(=O)O)cc7)cc6)c(C(=O)O)c5)CC[C@]4(C)C3CC[C@@]21C` (stereo partly drawn) [3'',3'''-Dichloro-5'',5'''-dicarboxy-4'',4'''-di[p-(4-carboxy-phenyl)benzyloxy]-4',4'-diphenyl-3beta-(3'-buten-1-yl)cholestane], the EC50 is more than 100 µM.

The molecule `CC(C)CCCC(C)[C@H]1CCC2C3CCC4C[C@@H](CCC=C(c5cc(Cl)c(OCc6ccc(CC(=O)O)cc6)c(C(=O)O)c5)c5cc(Cl)c(OCc6ccc(CC(=O)O)cc6)c(C(=O)O)c5)CC[C@]4(C)C3CC[C@@]21C` (stereo partly drawn) [3'',3'''-Dichloro-5'',5'''-dicarboxy-4'',4'''-di[p-(carboxymethyl)benzyloxy]-4',4'-diphenyl-3beta-(3'-buten-1-yl)cholestane] had an EC50 of 83.8 µM.

For the molecule `CC(C)CCCC(C)[C@H]1CCC2C3CCC4C[C@@H](CCCC(c5cc(Cl)c(OCc6ccc(C(=O)O)cc6)c(C(=O)O)c5)c5cc(Cl)c(OCc6ccc(C(=O)O)cc6)c(C(=O)O)c5)CC[C@]4(C)C3CC[C@@]21C` (stereo partly drawn) [3'',3'''-Dichloro-5'',5'''-dicarboxy-4'',4'''-di[p-carboxybenzyloxy]-4',4'-diphenyl-3beta-(1-butyl)cholestane], the EC50 amounted to 70.4 µM.

On to `CC(C)CCCC(C)[C@H]1CCC2C3CCC4C[C@@H](CCC=C(c5cc(Cl)c(O)c(C(=O)NCCC(=O)O)c5)c5cc(Cl)c(O)c(C(=O)NCCC(=O)O)c5)CC[C@]4(C)C3CC[C@@]21C` (stereo not given in full) [3-(5-{1-[3-(2-Carboxy-ethylcarbamoyl)-5-chloro-4-hydroxy-phenyl]-4-[17-(1,5-dimethyl-hexyl)-10,13-dimethyl-hexadecahydro-cyclopenta[a]phenanthren-3-yl]-but-1-enyl}-3-chloro-2-hydroxy-benzoylamino)-propionic acid], for which the EC50 was 120 µM.

The molecule `CC(C)CCCC(C)[C@H]1CCC2C3CCC4C[C@@H](CCC=C(c5cc(Cl)c(O)c(C(=O)O)c5)c5cc(Cl)c(O)c(C(=O)O)c5)CC[C@]4(C)C3CC[C@@]21C` (stereo partly drawn) [5-{1-(3-carboxy-5-chloro-4-hydroxyphenyl)-4-[1-(1,5-dimethylhexyl)-9a,11a-dimethyl-(9aS,11aR)-perhydrocyclopenta[a]phenanthren-7-yl]-1-butenyl}-3-chloro-2-hydroxybenzoic acid] gave an EC50 of 4 µM.

The molecule `CC(C)CCCC(C)[C@H]1CCC2C3CCC4C[C@@H](CCC=C(c5cc(Cl)c(O)c(C(=O)N[C@@H](CC(=O)O)C(=O)O)c5)c5cc(Cl)c(O)c(C(=O)N[C@@H](CC(=O)O)C(=O)O)c5)CC[C@]4(C)C3CC[C@@]21C` (stereo partly drawn) [(S)-2-(3-Chloro-5-{1-[3-chloro-5-((S)-1,2-dicarboxy-ethylcarbamoyl)-4-hydroxy-phenyl]-4-[(3S,10S,13R,17R)-17-(1,5-dimethyl-hexyl)-10,13-dimethyl-hexadecahydro-cyclopenta[a]phenanthren-3-yl]-but-1-enyl}-2-hydroxy-benzoylamino)-succinic acid] registered an EC50 of 122 µM.

As to `CC(C)CCCC(C)[C@H]1CCC2C3CCC4C[C@@H](CCC=C(c5cc(Cl)c(OCc6ccc(C(=O)O)cc6)c(C(=O)O)c5)c5cc(Cl)c(OCc6ccc(C(=O)O)cc6)c(C(=O)O)c5)CC[C@]4(C)C3CC[C@@]21C` (stereo not given in full) [Cosalane analogue], the EC50 amounted to 22 µM.

For `CC(C)CCCC(C)[C@H]1CCC2C3CCC4C[C@@H](CCC=C(c5cc(Cl)c(OCc6cccc(C(=O)O)c6)c(C(=O)O)c5)c5cc(Cl)c(OCc6cccc(C(=O)O)c6)c(C(=O)O)c5)CC[C@]4(C)C3CC[C@@]21C` (stereo not given in full) [Cosalane analogue], the EC50 is more than 29 µM.

For the molecule `CC(C)CCCC(C)[C@H]1CCC2C3CCC4C[C@@H](CCC=C(c5cc(Cl)c(OCc6ccccc6C(=O)O)c(C(=O)O)c5)c5cc(Cl)c(OCc6ccccc6C(=O)O)c(C(=O)O)c5)CC[C@]4(C)C3CC[C@@]21C` (stereo not given in full) [Cosalane analogue], the half-maximal effective concentration (EC50) is more than 37 µM.

On to `COc1c(Cl)cc(Cc2cc(C(=CCC[C@H]3CC[C@@]4(C)C(CCC5C4CC[C@@]4(C)C5CC[C@@H]4C(C)CCCC(C)C)C3)c3cc(Cc4cc(Cl)c(OC)c(C(=O)O)c4)c(OC)c(C(=O)O)c3)cc(C(=O)O)c2OC)cc1C(=O)O` (stereo not given in full) [Cosalane analogue], for which a half-maximal response (EC50) required 19.9 µM.

The molecule `COc1ccc(C(=O)Nc2cc(C(=CCC[C@H]3CC[C@@]4(C)C(CCC5C4CC[C@@]4(C)C5CC[C@@H]4C(C)CCCC(C)C)C3)c3cc(NC(=O)c4ccc(OC)c(C(=O)O)c4)c(OC)c(C(=O)O)c3)cc(C(=O)O)c2OC)cc1C(=O)O` (stereo not given in full) [Cosalane analogue] registered an EC50 of more than 66 µM.
